# From US20250213547A1, “METHODS OF TREATING NEUROLOGICAL DISEASES” (priority 2022, published 2025)
# Experiments:
# [1] = target: T1, CH24H (Homo sapiens, UniProt Q9Y6A2); assay: PK/PD (PK/OE/24HC) turnover modeling; conditions: turnover model estimate
# T1 construct: from tissue; host or cells: brain of living human trial subjects (in vivo)
# Excerpt: Similar to the PK model, the PK/PD model was developed as a population mixed-effects model and incorporated the individual PK parameters from the final PK population model. A turnover model was used to characterize changes in plasma 24HC overtime. Plasma 24HC was considered to be at steady-state baseline (BL) before the start of treatment. […] PK/PD covariates were screened in a procedure similar to the PK covariates. In the final PK/PD model, two covariates, A1-AGLP and body weight affected baseline 24HC.
# The PK/PD analysis dataset consisted of 2165 24HC observations from 3 phase I trials. Four subjects from the ELEKTRA study with large IC50 estimates were excluded from the dataset. Additionally, 42 individuals with large conditional weighted residuals were excluded from the dataset. The final dataset contained 2107 24HC observations from 248 subjects. Table 26 summarizes the modeling dataset with reference to example numbers, respective clinical trial ID, subject numbers, regimen, and number of observations and doses. Tables 27 and 28 summarize the categorical covariates used in PK/OE/24HC analysis from the entire dataset and the ELEKTRA study subset, respectively.
# Tables 29 and 30 summarize the mean continuous variables used in the PK/OE/24HC covariate analysis from the entire PK/OE/24HC population studied and the ELEKTRA subset, respectively. In addition to the shared variables, the PK/PD dataset contained the individual final estimates of the population PK model parameters (IND_ALAG1, IND_KA, IND_CL, IND_V2, IND_Q, IND_V3, and IND_F1). Subjects without individual PK parameter estimates (e.g. subjects from the placebo arms) were assigned to the respective geometric mean of the estimated individual parameter values.
# A turnover model was used to describe changes in 24HC concentration over time. […] The following formula estimates change in 24HC: […]
# The indirect exposure effect (EFF) was estimated by an Imax model:
# The effect-site concentration was implemented as a delayed equilibrium with the plasma/brain transit rate parameter (KPLBR):
# The scaling parameter KPLBR was previously estimated in a competitive enzyme occupancy model derived from PET brain imaging data (NCT02497235, Table 19). Parameters derived from this base model were fixed at their previous final PK population estimates derived from example 12. However, no random effects could be estimated without enzyme occupancy data. FIG. 26 depicts the basic model structure in relation to observed and unobserved data. There was a strong growth-related increase in baseline 24HC levels, which was only observed in young subjects.
# The following variables were screened by forward inclusion, backward exclusion F-tests: • Growth/maturity: Weight, BMI, and age • Protein binding: Albumin (ALB), A1-AGLP • Liver function: AST, ALT, GGT, and ALP • Kidney function: Creatinine clearance (CRCL), eGFR • Categorical variables: Asian, sex. Ethnicity, and disease type
# [2] = Relative stability of crystalline polymorphs; format: physicochemical; conditions: Form II compared with Form I
# T1 sequence (Q9Y6A2 whole entry): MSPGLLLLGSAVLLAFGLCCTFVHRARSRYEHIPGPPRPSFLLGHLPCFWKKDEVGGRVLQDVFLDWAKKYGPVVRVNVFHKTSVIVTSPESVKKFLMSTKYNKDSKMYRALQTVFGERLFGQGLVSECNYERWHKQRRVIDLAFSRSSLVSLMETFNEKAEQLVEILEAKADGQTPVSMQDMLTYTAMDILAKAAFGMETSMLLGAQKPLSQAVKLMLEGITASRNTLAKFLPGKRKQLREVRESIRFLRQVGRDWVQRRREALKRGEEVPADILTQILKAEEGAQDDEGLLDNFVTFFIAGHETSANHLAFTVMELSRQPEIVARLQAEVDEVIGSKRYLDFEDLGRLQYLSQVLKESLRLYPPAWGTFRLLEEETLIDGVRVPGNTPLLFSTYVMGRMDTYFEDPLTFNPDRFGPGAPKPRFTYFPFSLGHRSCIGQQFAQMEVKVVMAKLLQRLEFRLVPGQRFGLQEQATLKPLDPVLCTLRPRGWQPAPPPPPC
SMILES,24HC elimination rate (KOUT) [1] [ng/mL/h],24HC synthesis rate (KIN) [1] [h⁻¹],polymorph stability [2]
"CC(C)C(O)CC[C@@H](C)[C@H]1CC[C@H]2[C@@H]3CC=C4C[C@@H](O)CC[C@]4(C)[C@H]3CC[C@]12C (stereo partly drawn) [24HC, 24-hydroxycholesterol]",0.02,1.09,
"O=C(c1cccnc1-c1ccncc1)N1CCC(O)(Cc2ccccc2)CC1 [Form II, (4-benzyl-4-hydroxypiperidin-1-yl) (2,4′-bipyridin-3-yl) methanone]",,,more stable than Form I
